The record followed here is ChEMBL document CHEMBL5042526, “Design, Synthesis, and Biological Evaluation of Triazolone Derivatives as Potent PPARα/δ Dual Agonists for the Treatment of Nonalcoholic Steatohepatitis” (J Med Chem, 2022).

Calls of active or inactive are those of the source. The calls are words filed in the database; no cut-off is given here.

Series [1] has as its system Mus musculus. The series can be described thus: In vivo agonist activity at PPARalpha/delta assessed as upregulation of Csnk1g2 mRNA expression in C57BL/6Nifdc mouse liver at 10 mg/kg, po for 4 days. Format: functional, organism-based. As to conditions: time 4.0 day.
Series [2] deals with Mus musculus. The series can be described thus: In vivo agonist activity against PPARalpha/delta assessed as upregulation of Cd36 mRNA expression in C57BL/6Nifdc mouse skeletal muscle at 10 mg/kg, po for 4 days. The class given is functional, organism-based. As to conditions: time 4.0 day.
For a further series, the system named is HepG2. The series can be described thus: Agonist activity against PPARalpha/delta (unknown origin) assessed as upregulation of ACADVL mRNA expression in human HepG2 cells at 8 nM incubated for 12 hrs by RT-PCR analysis. As to conditions: filed as agonist. The class given is cell-based.
Series [3] concerns Mus musculus. As to the kind of experiment: In vivo agonist activity at PPARalpha/delta assessed as upregulation of Acox1 mRNA expression in C57BL/6Nifdc mouse liver at 10 mg/kg, po for 4 days. The class given is functional, organism-based. As to conditions: time 4.0 day.
Series [4] concerns Mus musculus. The series can be described thus: Anti-fibrosis effect in HF-CDAA-induced nonalcoholic steatohepatitis C57BL/6JNifdc mouse model assessed as expression of Tgfb1 marker at 10 mg/kg, po after 20 hrs by Western blot analysis. The class given is functional, organism-based. (Immunoblotting shows a protein as a band on a membrane.)
The next series has as its system THP-1. As to the kind of experiment: Anti-inflammatory activity in human THP1-derived macrophages assessed as decrease in secretion of LPS-induced IL-6 level at 8 to 200 nM for 12 hrs by ELISA kit method. The class given is functional, cell-based. As to conditions: dose 8-200 nM. A general note: In an ELISA, binding on a coated surface is turned into a signal by an enzyme label.

The target of series [5] is T1, Peroxisome proliferator-activated receptor alpha (Mus musculus, UniProt P23204).
T1 sequence (P23204 whole entry): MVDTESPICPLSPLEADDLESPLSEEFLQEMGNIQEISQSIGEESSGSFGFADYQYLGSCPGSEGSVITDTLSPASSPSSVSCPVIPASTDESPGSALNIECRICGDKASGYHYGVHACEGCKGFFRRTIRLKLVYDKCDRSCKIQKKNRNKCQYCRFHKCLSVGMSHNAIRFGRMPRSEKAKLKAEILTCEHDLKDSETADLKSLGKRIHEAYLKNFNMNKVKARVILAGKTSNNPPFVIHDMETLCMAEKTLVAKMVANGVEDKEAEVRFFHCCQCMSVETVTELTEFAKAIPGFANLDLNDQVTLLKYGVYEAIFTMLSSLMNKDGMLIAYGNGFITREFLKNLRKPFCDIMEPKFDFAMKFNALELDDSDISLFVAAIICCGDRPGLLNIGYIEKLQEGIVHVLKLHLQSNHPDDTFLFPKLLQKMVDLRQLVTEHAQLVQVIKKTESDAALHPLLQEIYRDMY
The series can be described thus: Agonist activity at mouse PPARalpha transfected in Cos7 cells co-expressing with pBIND and pGL4.35 Gal4 UAS Luc reporter plasmid by measuring luciferase activity incubated for 16 hrs by luciferase reporter gene assay.

Series [6] has as its system Mus musculus. The series can be described thus: In vivo agonist activity against PPARalpha/delta assessed as upregulation of -Retsat mRNA expression in C57BL/6Nifdc mouse skeletal muscle at 10 mg/kg, po for 4 days. The class given is functional, organism-based. As to conditions: time 4.0 day.
Series [7] in a line: Microsomal stability in human liver microsomes assessed as terminal elimination half life at 1 uM measured upto 60 mins by LC-MS/MS-11 analysis. Format: ADME, Microsome.
In series [8] the test system is Mus musculus. The series can be described thus: In vivo agonist activity against PPARalpha/delta assessed as upregulation of Ucp3 mRNA expression in C57BL/6Nifdc mouse liver at 10 mg/kg, po for 4 days. As to conditions: time 4.0 day. Format: functional, organism-based.
The test system of series [9] is Mus musculus. The series can be described thus: In vivo agonist activity at PPARalpha/delta assessed as upregulation of Cpt2 mRNA expression in C57BL/6Nifdc mouse liver at 10 mg/kg, po for 4 days. The conditions noted are these: time 4.0 day. The class given is functional, organism-based.
Series [10] has as its system Mus musculus. The series can be described thus: Anti-NASH activity in HF-CDAA-induced nonalcoholic steatohepatitis C57BL/6JNifdc mouse model assessed as reversal of inflammatory infilitration 3 to 30 mg/kg, po by H and E staining method. Format: functional, organism-based. The conditions noted are these: dose 3-30 mg/kg.
Series [11] relates to C2C12. The series can be described thus: Agonist activity against PPARalpha/delta (unknown origin) assessed as upregulation of Angpt14 mRNA expression in […] cells incubated for 12 hrs by RT-PCR analysis. The conditions noted are these: filed as agonist, dose 8-200 nM. Format: cell-based.
In series [12] the test system is Mus musculus. The series can be described thus: In vivo agonist activity against PPARalpha/delta assessed as upregulation of Abcg2 mRNA expression in C57BL/6Nifdc mouse liver at 10 mg/kg, po for 4 days. The class given is functional, organism-based. As to conditions: time 4.0 day.
Series [13] concerns the target T2, Peroxisome proliferator-activated receptor alpha (Homo sapiens) (UniProt Q07869).
T2 sequence (whole entry): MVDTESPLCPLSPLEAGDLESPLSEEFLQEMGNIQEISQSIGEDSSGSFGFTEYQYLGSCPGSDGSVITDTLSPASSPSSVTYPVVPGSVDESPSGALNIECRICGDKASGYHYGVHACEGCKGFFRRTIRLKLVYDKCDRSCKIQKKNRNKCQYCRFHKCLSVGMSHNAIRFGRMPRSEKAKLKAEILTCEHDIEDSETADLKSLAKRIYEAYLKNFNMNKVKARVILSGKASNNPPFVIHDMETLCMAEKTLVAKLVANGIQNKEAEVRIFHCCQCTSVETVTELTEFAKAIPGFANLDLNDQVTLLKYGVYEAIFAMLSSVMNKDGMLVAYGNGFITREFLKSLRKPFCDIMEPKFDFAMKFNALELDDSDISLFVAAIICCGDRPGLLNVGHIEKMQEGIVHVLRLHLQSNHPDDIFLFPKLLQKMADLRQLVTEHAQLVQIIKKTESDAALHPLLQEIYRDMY
The conditions noted are these: filed as agonist, dose 10.0 nM.
Description: Agonist activity at PPARalpha (unknown origin) assessed as maximal activation at 10 nM relative to GW7647

Series [14] relates to Mus musculus. The series can be described thus: In vivo agonist activity at PPARalpha/delta assessed as upregulation of -Grhpr mRNA expression in C57BL/6Nifdc mouse liver at 10 mg/kg, po for 4 days. The conditions noted are these: time 4.0 day. Format: functional, organism-based.
Series [15] concerns Mus musculus. As to the kind of experiment: Anti-fibrosis effect in CCl4 induced liver fibrosis C57BL/6JNifdc mouse model assessed as decrease in level of hydroxyproline level at 3 to 30 mg/kg, po after 20 hrs […]. Format: functional, organism-based. The conditions noted are these: dose 3-30 mg/kg.
The subject of series [16] is Mus musculus. The series can be described thus: In vivo agonist activity at PPARalpha/delta assessed as upregulation of Mfn2 mRNA expression in C57BL/6Nifdc mouse liver at 10 mg/kg, po for 4 days. The class given is functional, organism-based. As to conditions: time 4.0 day.
In series [17] the test system is Mus musculus. The series can be described thus: In vivo agonist activity against PPARalpha/delta assessed as upregulation of Aldh3a2 mRNA expression in C57BL/6Nifdc mouse liver at 10 mg/kg, po for 4 days. The class given is functional, organism-based. The conditions noted are these: time 4.0 day.
Series [18] has as its system Mus musculus. As to the kind of experiment: In vivo agonist activity against PPARalpha/delta assessed as upregulation of […] mRNA expression in C57BL/6Nifdc mouse skeletal muscle at 10 mg/kg, po for 4 days. Format: functional, organism-based. As to conditions: time 4.0 day.
For a further series, the system named is AML12. As to the kind of experiment: Agonist activity against PPARalpha/delta (unknown origin) assessed as upregulation of ACADVL mRNA expression in […] cells incubated for 12 hrs by RT-PCR analysis. Format: cell-based. The conditions noted are these: filed as agonist, dose 8-200 nM.
Series [19] has as its system Mus musculus. As to the kind of experiment: In vivo agonist activity against PPARalpha/delta assessed as upregulation of -Cidea mRNA expression in C57BL/6Nifdc mouse skeletal muscle at 10 mg/kg, po for 4 days. The class given is functional, organism-based. As to conditions: time 4.0 day.
Series [20] has as its system Mus musculus. As to the kind of experiment: In vivo agonist activity against PPARalpha/delta assessed as upregulation of Slc25a20 mRNA expression in C57BL/6Nifdc mouse skeletal muscle at 10 mg/kg, po for 4 days. Format: functional, organism-based. As to conditions: time 4.0 day.
Series [21] deals with C2C12. As to the kind of experiment: Agonist activity against PPARalpha/delta (unknown origin) assessed as upregulation of Cpt1A mRNA expression in […] cells incubated for 12 hrs by RT-PCR analysis. The class given is cell-based. As to conditions: filed as agonist, dose 8-200 nM.

The EC50 is the concentration at which the effect is half-maximal. Low readings indicate higher potency in that assay, high ones lower potency in that assay. The term half-life denotes how long it takes for the measured level to halve. With `Cc1cc(Cn2ncn(-c3ccc(OC(F)(F)F)cc3)c2=O)cc(C)c1OC(C)(C)C(=O)O`, the result in the series with Mus musculus [1], in the series on Mus musculus [2], in the series on HepG2, in the series on Mus musculus [3], with Mus musculus [4] and in the series on THP-1 was Active. Moreover, the result in the series on Mus musculus [6], in the series with Mus musculus [8], with Mus musculus [9], in the series with Mus musculus [10], in the series with Mus musculus [12] and in the series on Mus musculus [14] was Active. Also, the result with Mus musculus [15], in the series on Mus musculus [16], with Mus musculus [17], with Mus musculus [18], in the series with Mus musculus [19] and in the series with Mus musculus [20] was Active. A half-maximal effect in series [5] (EC50) was put at 16.8 nM. In addition, the half-life at 1 µM in [7] was more than 2 h. Also, the Activity entry with C2C12 [11], with AML12 and with C2C12 [21] was “Dose-Dependent Effect” each time. The same compound displayed an Emax in series [13] of 110%.
